{"source": "patent US8796234B2", "about": "“Crosslinking branched molecule through thiol-disulfide exchange to form hydrogel” (Agency for Science, Technology and Research, priority 2009, dated 2014)", "assay": "Drug loading capacity of sample hydrogel", "type": "physicochemical", "conditions": "poly(BAC2-AEPZ1)-PEG hydrogel", "method": "Aqueous solutions of 5 wt % poly(BAC2-AEPZ1)-PEG was prepared and left to equilibrate overnight at room temperature. Appropriate amounts of doxorubicin (Dox) were loaded to make the concentration of Dox in the polymer solution 5 mg mL^−1. Subsequently, small amount of 5M sodium hydroxide (NaOH) was added in and was being vortexed for a few minutes to adjust pH to more than 12, and the solutions turn blue. Then, the solution was left undisturbed during hydrogel formation for predetermined time. After predetermined time, a slight in excessive of 5M HCl was added to neutralize the hydrogel to keep the hydrogel stable, and the hydrogel turned red. […]\nThe results were presented in terms of cumulative release as a function of time: Cumulative amount release (%)=(Mt/M∞) where Mt is the amount of Dox released from the hydrogel at time t and M∞ is the estimate amount of Dox loaded in the hydrogel and was calculated from the weight difference of the initial Dox solution concentration and the remaining Dox solution concentration (combining rinsing water and remaining solution expelled from the hydrogel) after loading.\n1 mL of Pac/methanol was extracted from saturated stock solution (50 mg/mL) and added to a vial. […] The column effluent was detected UV spectrophotometrically at wavelength of 227 nm. […]"}
{"compound": "COc1cccc2c1C(=O)c1c(O)c3c(c(O)c1C2=O)C[C@@](O)(C(=O)CO)C[C@@H]3O[C@H]1C[C@H](N)[C@H](O)[C@H](C)O1", "note": "[Dox, doxorubicin]", "values": [{"measurement": "loading capacity of drug in the sample hydrogel", "result": "5-10%"}]}
{"compound": "CC(=O)O[C@H]1C(=O)[C@@]2(C)[C@H]([C@H](OC(=O)c3ccccc3)[C@]3(O)C[C@H](OC(=O)[C@H](O)[C@@H](NC(=O)c4ccccc4)c4ccccc4)C(C)=C1C3(C)C)[C@]1(OC(C)=O)CO[C@@H]1C[C@@H]2O", "note": "[Pac, Paclitaxel]", "values": [{"measurement": "loading capacity of drug in the sample hydrogel", "result": "30-50%"}]}
